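1) Cells in 96-well plates. 2) Compound, 48 h, 5 concentrations. 3) Linear interpolation between surrounding doses. 4) Unreached endpoint = highest concentration. The concentration for full growth arrest is given as TGI.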
Tests used:
Test in all cases: inhibition of tumour cell growth, NCI panel, 48 h
UACC-62 melanoma = test system: UACC-62 melanoma
SK-MEL-28 melanoma = test system: SK-MEL-28 melanoma
NCI/ADR-RES ovarian = test system: NCI/ADR-RES ovarian
CCRF-CEM leukemia = test system: CCRF-CEM leukemia
HOP-62 NSCLC = test system: HOP-62 NSCLC
T-47D breast = test system: T-47D breast
OVCAR-3 ovarian = test system: OVCAR-3 ovarian
NCI-H522 lung = test system: NCI-H522 lung
HOP-92 NSCLC = test system: HOP-92 NSCLC
SR leukemia = test system: SR leukemia
HL-60(TB) leukemia = test system: HL-60(TB) leukemia
MDA-MB-435 = test system: MDA-MB-435
CAKI-1 renal = test system: CAKI-1 renal
HS 578T breast = test system: HS 578T breast
786-0 renal = test system: 786-0 renal
ACHN renal = test system: ACHN renal
DU-145 prostate = test system: DU-145 prostate
OVCAR-4 ovarian = test system: OVCAR-4 ovarian
SK-MEL-5 melanoma = test system: SK-MEL-5 melanoma
SK-MEL-2 melanoma = test system: SK-MEL-2 melanoma
BT-549 breast = test system: BT-549 breast
OVCAR-5 ovarian = test system: OVCAR-5 ovarian
SK-OV-3 ovarian = test system: SK-OV-3 ovarian
HCC-2998 colon = test system: HCC-2998 colon
OVCAR-8 ovarian = test system: OVCAR-8 ovarian
A498 renal = test system: A498 renal
HCT-116 colon = test system: HCT-116 colon
SF-295 CNS = test system: SF-295 CNS
COLO 205 colon = test system: COLO 205 colon
MOLT-4 leukemia = test system: MOLT-4 leukemia
NCI-H23 lung = test system: NCI-H23 lung
MDA-MB-231 breast = test system: MDA-MB-231 breast
SW-620 colon = test system: SW-620 colon
MCF7 breast = test system: MCF7 breast
HCT-15 colon = test system: HCT-15 colon
UO-31 renal = test system: UO-31 renal
RPMI-8226 leukemia = test system: RPMI-8226 leukemia
A549 NSCLC = test system: A549 NSCLC
SNB-75 CNS = test system: SNB-75 CNS
SNB-19 CNS = test system: SNB-19 CNS
U251 CNS = test system: U251 CNS
SF-539 CNS = test system: SF-539 CNS
SN12C renal = test system: SN12C renal
TK-10 renal = test system: TK-10 renal
UACC-257 melanoma = test system: UACC-257 melanoma
PC-3 prostate = test system: PC-3 prostate
IGROV1 ovarian = test system: IGROV1 ovarian
RXF 393 renal = test system: RXF 393 renal
K-562 leukemia = test system: K-562 leukemia
NCI-H226 lung = test system: NCI-H226 lung
KM12 colon = test system: KM12 colon
M14 melanoma = test system: M14 melanoma
HT29 colon = test system: HT29 colon
SF-268 CNS = test system: SF-268 CNS
EKVX NSCLC = test system: EKVX NSCLC
MDA-N = test system: MDA-N
MALME-3M melanoma = test system: MALME-3M melanoma
NCI-H460 lung = test system: NCI-H460 lung

Measured: TGI

O=S(=O)(c1ccccc1)[C@H]1[C@@H]2O[C@@H]2C[C@@H]1O
> 100 µM: all assays above

From PubChem BioAssay (NCI)
